Test results published in article PMC9856672, “SGC-CAMKK2-1: A Chemical Probe for CAMKK2” (Cells, 2023).

Key:
CAMK2G = target: T1, CAMK2G (Homo sapiens, UniProt Q13555); test: KINOMEscan at 1 μM, CAMK2G; type: binding; conditions: 1000 nM, read-out: Percent Control
T1 construct: purchased Eurofins DiscoverX KINOMEscan
Excerpt: (§1) Supplement cells-12-00287-s001.zip/File S2. KinomeScan data for the CAMKK2 probe and negative control.xlsx, sheet "SGC-CAMKK2-1N" | column: Percent Control

RIOK2 = target: T2, RIOK2 (Homo sapiens, UniProt Q9BVS4); test: KINOMEscan at 1 μM, RIOK2; type: binding; conditions: 1000 nM, read-out: Percent Control
T2 construct: purchased Eurofins DiscoverX KINOMEscan
Excerpt: as §1

PIP5K1C = target: T3, PIP5K1C (Homo sapiens, UniProt O60331); test: KINOMEscan binding assay at 1 μM, PIP5K1C; conditions: Compound Concentration 1000 nM; read-out: Percent Control
T3 construct: purchased Eurofins DiscoverX KINOMEscan
Excerpt: as §1

PLK3 = target: T4, PLK3 (Homo sapiens, UniProt Q9H4B4); test: KINOMEscan at 1 μM, PLK3; type: binding; conditions: 1000 nM, read-out: Percent Control
T4 construct: purchased Eurofins DiscoverX KINOMEscan
Excerpt: as §1

EGFR(L858R) = target: T5, EGFR(L858R) (Homo sapiens, UniProt P00533, L858R); test: KINOMEscan binding assay at 1 μM, EGFR(L858R); conditions: Compound Concentration 1000 nM; read-out: Percent Control
T5 construct: purchased Eurofins DiscoverX KINOMEscan
Excerpt: as §1

BUB1 = target: T6, BUB1 (Homo sapiens, UniProt O43683); test: KINOMEscan at 1 μM, BUB1; type: binding; conditions: 1000 nM, read-out: Percent Control
T6 construct: purchased Eurofins DiscoverX KINOMEscan
Excerpt: as §1

PIK3C2B = target: T7, PIK3C2B (Homo sapiens, UniProt O00750); test: KINOMEscan at 1 μM, PIK3C2B; type: binding; conditions: 1000 nM, read-out: Percent Control
T7 construct: purchased Eurofins DiscoverX KINOMEscan
Excerpt: as §1

CDKL5 [1] = target: T8, CDKL5 (Homo sapiens, UniProt O76039); test: KINOMEscan at 1 μM, CDKL5; type: binding; conditions: 1000 nM, read-out: Percent Control
T8 construct: purchased Eurofins DiscoverX KINOMEscan
Excerpt: as §1

YANK3 = target: T9, YANK3 (Homo sapiens, UniProt Q86UX6); test: KINOMEscan at 1 μM, YANK3; type: binding; conditions: 1000 nM, read-out: Percent Control
T9 construct: purchased Eurofins DiscoverX KINOMEscan
Excerpt: as §1

PRKCD = target: T10, PRKCD (Homo sapiens, UniProt Q05655); test: KINOMEscan binding assay at 1 μM, PRKCD; conditions: Compound Concentration 1000 nM; read-out: Percent Control
T10 construct: purchased Eurofins DiscoverX KINOMEscan
Excerpt: as §1

IKK-alpha = target: T11, IKK-alpha (Homo sapiens, UniProt O15111); test: KINOMEscan at 1 μM, IKK-alpha; type: binding; conditions: 1000 nM, read-out: Percent Control
T11 construct: purchased Eurofins DiscoverX KINOMEscan
Excerpt: as §1

AMPK-alpha1 = target: T12, AMPK-alpha1 (Homo sapiens, UniProt Q13131); test: KINOMEscan at 1 μM, AMPK-alpha1; type: binding; conditions: 1000 nM, read-out: Percent Control
T12 construct: purchased Eurofins DiscoverX KINOMEscan
Excerpt: as §1

[2] = target: T13, ABL1(E255K)-phosphorylated (Homo sapiens, UniProt P00519, E255K); test: KINOMEscan at 1 μM, ABL1(E255K)-phosphorylated; type: binding; conditions: 1000 nM, read-out: Percent Control
T13 construct: purchased Eurofins DiscoverX KINOMEscan
Excerpt: as §1

NEK3 = target: T14, NEK3 (Homo sapiens, UniProt P51956); test: KINOMEscan at 1 μM, NEK3; type: binding; conditions: 1000 nM, read-out: Percent Control
T14 construct: purchased Eurofins DiscoverX KINOMEscan
Excerpt: as §1

EIF2AK1 = target: T15, EIF2AK1 (Homo sapiens, UniProt Q9BQI3); test: KINOMEscan at 1 μM, EIF2AK1; type: binding; conditions: 1000 nM, read-out: Percent Control
T15 construct: purchased Eurofins DiscoverX KINOMEscan
Excerpt: as §1

PRP4 = target: T16, PRP4 (Homo sapiens, UniProt Q13523); test: DiscoverX KINOMEscan binding assay at 1 μM, PRP4; conditions: PRP4 (PRPF4B); Compound Concentration 1000 nM; read-out: Percent Control
T16 construct: purchased Eurofins DiscoverX KINOMEscan
Excerpt: (§2) Supplement cells-12-00287-s001.zip/File S2. KinomeScan data for the CAMKK2 probe and negative control.xlsx, sheet "SGC-CAMKK2-1" | column: Percent Control

GCN2(Kin.Dom.2,S808G) = target: T17, GCN2(Kin.Dom.2,S808G) (Homo sapiens, UniProt Q9P2K8, S808G); test: KINOMEscan 1 μM, GCN2(Kin.Dom.2,S808G); type: binding; conditions: 1000 nM; Entrez EIF2AK4; read-out: Percent Control
T17 construct: GCN2(Kin.Dom.2,S808G); purchased Eurofins DiscoverX KINOMEscan
Excerpt: as §2

ULK1 = target: T18, ULK1 (Homo sapiens, UniProt O75385); test: KINOMEscan 1 μM, ULK1; type: binding; conditions: 1000 nM; Entrez ULK1; read-out: Percent Control
T18 construct: purchased Eurofins DiscoverX KINOMEscan
Excerpt: as §2

RIPK4 = target: T19, RIPK4 (Homo sapiens, UniProt P57078); test: DiscoverX KINOMEscan binding assay at 1 μM, RIPK4; conditions: Compound Concentration 1000 nM, read-out: Percent Control
T19 construct: purchased Eurofins DiscoverX KINOMEscan
Excerpt: as §2

PCTK2 = target: T20, PCTK2 (Homo sapiens, UniProt Q00537); test: DiscoverX KINOMEscan binding assay at 1 μM, PCTK2; conditions: PCTK2 (CDK17); Compound Concentration 1000 nM; read-out: Percent Control
T20 construct: purchased Eurofins DiscoverX KINOMEscan
Excerpt: as §2

[3] = target: T21, ABL1(H396P)-nonphosphorylated (Homo sapiens, UniProt P00519, H396P); test: KINOMEscan 1 μM, ABL1(H396P)-nonphosphorylated; type: binding; conditions: 1000 nM; Entrez ABL1; read-out: Percent Control
T21 construct: purchased Eurofins DiscoverX KINOMEscan
Excerpt: as §2

ERK8 = target: T22, ERK8 (Homo sapiens, UniProt Q8TD08); test: KINOMEscan 1 μM, ERK8; type: binding; conditions: 1000 nM; Entrez MAPK15; read-out: Percent Control
T22 construct: purchased Eurofins DiscoverX KINOMEscan
Excerpt: as §2

SRC = target: T23, SRC (Homo sapiens, UniProt P12931); test: KINOMEscan 1 μM, SRC; type: binding; conditions: 1000 nM; Entrez SRC; read-out: Percent Control
T23 construct: purchased Eurofins DiscoverX KINOMEscan
Excerpt: as §2

PRKCI = target: T24, PRKCI (Homo sapiens, UniProt P41743); test: DiscoverX KINOMEscan binding assay at 1 μM, PRKCI; conditions: Compound Concentration 1000 nM, read-out: Percent Control
T24 construct: purchased Eurofins DiscoverX KINOMEscan
Excerpt: as §2

CDKL5 [4] = target: T8, CDKL5; test: KINOMEscan 1 μM, CDKL5; type: binding; conditions: 1000 nM; Entrez CDKL5; read-out: Percent Control
Excerpt: as §2

MAP4K5 = target: T25, MAP4K5 (Homo sapiens, UniProt Q9Y4K4); test: KINOMEscan 1 μM, MAP4K5; type: binding; conditions: 1000 nM; Entrez MAP4K5; read-out: Percent Control
T25 construct: purchased Eurofins DiscoverX KINOMEscan
Excerpt: as §2

PYK2 = target: T26, PYK2 (Homo sapiens, UniProt Q14289); test: DiscoverX KINOMEscan binding assay at 1 μM, PYK2; conditions: PYK2 (PTK2B); Compound Concentration 1000 nM; read-out: Percent Control
T26 construct: purchased Eurofins DiscoverX KINOMEscan
Excerpt: as §2

CSNK1A1 = target: T27, CSNK1A1 (Homo sapiens, UniProt P48729); test: KINOMEscan 1 μM, CSNK1A1; type: binding; conditions: 1000 nM; Entrez CSNK1A1; read-out: Percent Control
T27 construct: purchased Eurofins DiscoverX KINOMEscan
Excerpt: as §2

FLT3 = target: T28, FLT3 (Homo sapiens, UniProt P36888); test: KINOMEscan 1 μM, FLT3; type: binding; conditions: 1000 nM; Entrez FLT3; read-out: Percent Control
T28 construct: purchased Eurofins DiscoverX KINOMEscan
Excerpt: as §2

NEK2 = target: T29, NEK2 (Homo sapiens, UniProt P51955); test: KINOMEscan 1 μM, NEK2; type: binding; conditions: 1000 nM; Entrez NEK2; read-out: Percent Control
T29 construct: purchased Eurofins DiscoverX KINOMEscan
Excerpt: as §2

LATS2 = target: T30, LATS2 (Homo sapiens, UniProt Q9NRM7); test: KINOMEscan 1 μM, LATS2; type: binding; conditions: 1000 nM; Entrez LATS2; read-out: Percent Control
T30 construct: purchased Eurofins DiscoverX KINOMEscan
Excerpt: as §2

EPHA7 = target: T31, EPHA7 (Homo sapiens, UniProt Q15375); test: KINOMEscan 1 μM, EPHA7; type: binding; conditions: 1000 nM; Entrez EPHA7; read-out: Percent Control
T31 construct: purchased Eurofins DiscoverX KINOMEscan
Excerpt: as §2

ICK = target: T32, ICK (Homo sapiens, UniProt Q9UPZ9); test: KINOMEscan 1 μM, ICK; type: binding; conditions: 1000 nM; Entrez ICK; read-out: Percent Control
T32 construct: purchased Eurofins DiscoverX KINOMEscan
Excerpt: as §2

T8 sequence (O76039 whole entry): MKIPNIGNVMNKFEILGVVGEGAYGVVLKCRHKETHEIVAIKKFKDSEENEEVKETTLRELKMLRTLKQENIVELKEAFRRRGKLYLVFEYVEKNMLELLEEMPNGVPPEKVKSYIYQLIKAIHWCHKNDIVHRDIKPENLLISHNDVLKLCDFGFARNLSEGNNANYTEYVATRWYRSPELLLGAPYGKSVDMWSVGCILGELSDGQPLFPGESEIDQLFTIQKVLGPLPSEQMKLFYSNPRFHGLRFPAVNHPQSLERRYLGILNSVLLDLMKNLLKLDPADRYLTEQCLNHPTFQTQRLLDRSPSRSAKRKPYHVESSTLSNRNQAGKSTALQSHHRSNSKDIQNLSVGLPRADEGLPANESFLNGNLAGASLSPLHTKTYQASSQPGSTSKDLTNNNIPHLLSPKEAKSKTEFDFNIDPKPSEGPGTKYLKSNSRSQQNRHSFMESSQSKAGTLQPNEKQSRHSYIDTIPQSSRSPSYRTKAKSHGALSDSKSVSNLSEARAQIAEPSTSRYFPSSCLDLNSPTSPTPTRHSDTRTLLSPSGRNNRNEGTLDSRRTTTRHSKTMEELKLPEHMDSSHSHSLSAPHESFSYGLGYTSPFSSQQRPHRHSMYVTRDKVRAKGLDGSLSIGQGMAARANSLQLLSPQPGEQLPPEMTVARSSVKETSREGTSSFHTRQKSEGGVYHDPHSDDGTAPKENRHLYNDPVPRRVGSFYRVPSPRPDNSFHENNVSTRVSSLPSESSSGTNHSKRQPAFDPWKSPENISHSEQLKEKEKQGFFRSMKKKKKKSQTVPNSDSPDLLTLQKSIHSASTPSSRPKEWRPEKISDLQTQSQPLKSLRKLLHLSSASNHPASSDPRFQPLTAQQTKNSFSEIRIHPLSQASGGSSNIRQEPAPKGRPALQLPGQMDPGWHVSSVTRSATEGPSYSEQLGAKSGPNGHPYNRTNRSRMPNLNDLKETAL
T26 sequence (Q14289 whole entry): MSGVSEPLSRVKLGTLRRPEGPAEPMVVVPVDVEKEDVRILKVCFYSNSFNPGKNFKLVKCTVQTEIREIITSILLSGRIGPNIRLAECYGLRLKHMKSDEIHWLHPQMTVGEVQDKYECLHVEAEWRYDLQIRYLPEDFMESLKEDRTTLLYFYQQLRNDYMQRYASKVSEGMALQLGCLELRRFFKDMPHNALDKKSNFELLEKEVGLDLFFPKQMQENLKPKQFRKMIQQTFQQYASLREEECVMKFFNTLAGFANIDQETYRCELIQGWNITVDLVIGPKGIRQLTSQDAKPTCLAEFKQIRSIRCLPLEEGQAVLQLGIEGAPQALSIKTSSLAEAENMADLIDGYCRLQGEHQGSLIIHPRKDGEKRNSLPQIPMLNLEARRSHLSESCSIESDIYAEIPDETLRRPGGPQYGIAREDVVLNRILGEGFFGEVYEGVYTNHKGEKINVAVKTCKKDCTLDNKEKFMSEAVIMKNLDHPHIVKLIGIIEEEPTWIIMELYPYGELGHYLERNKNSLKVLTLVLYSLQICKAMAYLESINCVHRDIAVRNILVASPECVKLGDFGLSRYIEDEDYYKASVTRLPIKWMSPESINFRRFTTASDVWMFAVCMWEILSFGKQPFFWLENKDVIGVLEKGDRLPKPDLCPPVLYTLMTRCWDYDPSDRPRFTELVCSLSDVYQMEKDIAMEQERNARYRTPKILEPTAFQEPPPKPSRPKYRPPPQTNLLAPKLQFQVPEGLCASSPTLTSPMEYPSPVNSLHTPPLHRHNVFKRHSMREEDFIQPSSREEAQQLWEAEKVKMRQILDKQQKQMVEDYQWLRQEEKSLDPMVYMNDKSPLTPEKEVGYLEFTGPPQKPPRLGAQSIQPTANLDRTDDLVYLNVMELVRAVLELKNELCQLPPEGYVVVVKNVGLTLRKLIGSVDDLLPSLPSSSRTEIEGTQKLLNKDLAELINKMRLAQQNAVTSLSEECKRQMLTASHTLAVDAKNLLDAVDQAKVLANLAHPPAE
T2 sequence (Q9BVS4 whole entry): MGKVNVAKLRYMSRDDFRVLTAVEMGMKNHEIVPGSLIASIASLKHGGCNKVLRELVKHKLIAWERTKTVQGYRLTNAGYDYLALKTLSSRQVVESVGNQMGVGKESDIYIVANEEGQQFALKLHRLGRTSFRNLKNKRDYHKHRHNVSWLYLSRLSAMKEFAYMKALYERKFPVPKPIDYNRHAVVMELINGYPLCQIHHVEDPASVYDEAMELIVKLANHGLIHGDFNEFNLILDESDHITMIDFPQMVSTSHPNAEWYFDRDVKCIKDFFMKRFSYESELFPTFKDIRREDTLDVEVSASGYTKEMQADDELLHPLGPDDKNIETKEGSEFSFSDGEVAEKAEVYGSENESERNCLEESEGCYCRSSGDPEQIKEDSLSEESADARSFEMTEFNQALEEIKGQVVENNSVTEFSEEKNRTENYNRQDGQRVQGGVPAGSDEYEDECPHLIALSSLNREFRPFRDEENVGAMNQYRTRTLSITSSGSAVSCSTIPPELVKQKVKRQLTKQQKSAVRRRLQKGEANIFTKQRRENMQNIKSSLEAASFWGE
T30 sequence (Q9NRM7 whole entry): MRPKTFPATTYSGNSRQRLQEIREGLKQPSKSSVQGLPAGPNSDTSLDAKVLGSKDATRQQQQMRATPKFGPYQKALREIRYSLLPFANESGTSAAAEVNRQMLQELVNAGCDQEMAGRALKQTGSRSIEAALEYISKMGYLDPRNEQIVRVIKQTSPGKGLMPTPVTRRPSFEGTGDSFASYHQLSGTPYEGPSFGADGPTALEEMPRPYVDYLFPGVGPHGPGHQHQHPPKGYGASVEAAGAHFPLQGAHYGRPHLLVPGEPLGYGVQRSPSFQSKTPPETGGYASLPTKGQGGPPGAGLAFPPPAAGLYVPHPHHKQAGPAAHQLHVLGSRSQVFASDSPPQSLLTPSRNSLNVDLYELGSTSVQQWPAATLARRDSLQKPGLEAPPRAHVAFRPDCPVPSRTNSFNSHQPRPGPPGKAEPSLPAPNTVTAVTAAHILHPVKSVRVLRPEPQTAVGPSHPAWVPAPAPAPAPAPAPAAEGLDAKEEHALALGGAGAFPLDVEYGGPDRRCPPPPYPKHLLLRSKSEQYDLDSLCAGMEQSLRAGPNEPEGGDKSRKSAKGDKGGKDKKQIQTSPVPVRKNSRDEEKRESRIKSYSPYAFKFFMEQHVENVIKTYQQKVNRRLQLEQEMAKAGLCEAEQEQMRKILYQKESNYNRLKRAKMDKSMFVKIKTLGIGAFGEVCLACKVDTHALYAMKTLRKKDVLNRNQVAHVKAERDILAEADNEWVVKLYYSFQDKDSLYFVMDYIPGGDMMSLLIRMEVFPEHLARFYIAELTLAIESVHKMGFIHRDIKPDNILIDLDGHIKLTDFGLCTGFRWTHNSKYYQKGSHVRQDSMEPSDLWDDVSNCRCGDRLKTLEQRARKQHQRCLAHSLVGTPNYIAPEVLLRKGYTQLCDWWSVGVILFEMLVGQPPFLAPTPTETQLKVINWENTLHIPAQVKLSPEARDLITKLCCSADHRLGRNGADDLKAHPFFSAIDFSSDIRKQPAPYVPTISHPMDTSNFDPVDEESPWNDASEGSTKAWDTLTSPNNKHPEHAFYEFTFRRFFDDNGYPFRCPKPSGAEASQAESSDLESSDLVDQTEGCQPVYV
T11 sequence (O15111 whole entry): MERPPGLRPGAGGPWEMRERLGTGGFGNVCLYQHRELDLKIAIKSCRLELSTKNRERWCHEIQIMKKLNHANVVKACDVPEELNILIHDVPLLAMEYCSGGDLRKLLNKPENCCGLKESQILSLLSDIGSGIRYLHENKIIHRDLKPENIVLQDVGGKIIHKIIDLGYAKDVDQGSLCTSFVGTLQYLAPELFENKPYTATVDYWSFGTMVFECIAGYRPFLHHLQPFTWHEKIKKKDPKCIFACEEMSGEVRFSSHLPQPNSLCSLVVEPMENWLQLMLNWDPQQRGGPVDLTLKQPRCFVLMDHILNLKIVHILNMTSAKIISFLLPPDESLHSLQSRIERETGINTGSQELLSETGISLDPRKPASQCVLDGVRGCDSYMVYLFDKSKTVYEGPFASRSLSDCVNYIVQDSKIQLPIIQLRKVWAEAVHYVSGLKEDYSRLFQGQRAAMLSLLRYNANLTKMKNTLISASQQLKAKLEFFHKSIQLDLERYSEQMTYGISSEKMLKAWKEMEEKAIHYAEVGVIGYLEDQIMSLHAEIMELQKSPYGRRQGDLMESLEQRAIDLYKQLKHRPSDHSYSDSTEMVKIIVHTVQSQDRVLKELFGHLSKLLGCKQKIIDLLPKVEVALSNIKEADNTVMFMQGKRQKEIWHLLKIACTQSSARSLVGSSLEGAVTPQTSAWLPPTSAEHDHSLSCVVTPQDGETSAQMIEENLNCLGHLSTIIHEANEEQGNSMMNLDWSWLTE
T10 sequence (Q05655 whole entry): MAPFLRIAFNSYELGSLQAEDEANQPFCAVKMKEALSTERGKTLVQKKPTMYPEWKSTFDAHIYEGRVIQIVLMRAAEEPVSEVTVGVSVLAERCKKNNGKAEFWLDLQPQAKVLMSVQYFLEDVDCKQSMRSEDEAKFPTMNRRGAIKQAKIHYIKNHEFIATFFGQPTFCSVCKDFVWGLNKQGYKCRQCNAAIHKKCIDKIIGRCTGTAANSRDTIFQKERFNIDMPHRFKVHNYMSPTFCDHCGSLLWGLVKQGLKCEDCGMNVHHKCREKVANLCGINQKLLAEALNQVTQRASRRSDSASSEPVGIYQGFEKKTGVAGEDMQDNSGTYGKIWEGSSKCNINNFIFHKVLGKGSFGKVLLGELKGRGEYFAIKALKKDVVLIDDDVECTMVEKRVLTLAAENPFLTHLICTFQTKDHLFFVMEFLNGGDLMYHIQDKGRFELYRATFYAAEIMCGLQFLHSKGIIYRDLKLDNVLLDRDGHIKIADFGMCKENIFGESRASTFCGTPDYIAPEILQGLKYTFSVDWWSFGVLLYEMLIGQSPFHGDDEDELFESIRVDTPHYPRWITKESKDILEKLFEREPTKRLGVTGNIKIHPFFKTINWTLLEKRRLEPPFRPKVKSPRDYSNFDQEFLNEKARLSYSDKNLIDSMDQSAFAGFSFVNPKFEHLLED

Work on `O=C(O)c1ccc(-c2coc3ncc(-c4ccccc4)cc23)cc1Cl` [SGC-CAMKK2-1N (UNC-YL-83)] yielded a remaining binding at 1 µM (CAMK2G) of 85%, a remaining binding at 1 µM (RIOK2) of 93% and a remaining binding at 1 µM (PIP5K1C) of 100%. For the same compound, the remaining binding at 1 µM (PLK3) was 91%, the remaining binding at 1 µM (EGFR(L858R)) was 100% and the remaining binding at 1 µM (BUB1) was 79%. The remaining binding at 1 µM (PIK3C2B) was 91%, the remaining binding at 1 µM (CDKL5 [1]) was 100% and the remaining binding at 1 µM (YANK3) was 70%. It also gave a remaining binding at 1 µM (PRKCD) of 100%, a remaining binding at 1 µM (IKK-alpha) of 75% and a remaining binding at 1 µM (AMPK-alpha1) of 100%. The remaining binding at 1 µM [2] was 65%, the remaining binding at 1 µM (NEK3) was 71% and the remaining binding at 1 µM (EIF2AK1) was 42%.

`Cc1cccc(-c2cnc3occ(-c4ccc(C(=O)O)c(C5CCCC5)c4)c3c2)c1` [SGC-CAMKK2-1 (YL-36)] gave a remaining binding at 1 µM (PRP4) of 100%, a remaining binding at 1 µM (GCN2(Kin.Dom.2,S808G)) of 42% and a remaining binding at 1 µM (ULK1) of 62%. For the same compound, the remaining binding at 1 µM (RIPK4) was 100%, the remaining binding at 1 µM (PCTK2) was 100% and the remaining binding at 1 µM [3] was 100%. For the same compound, the remaining binding at 1 µM (ERK8) was 100%, the remaining binding at 1 µM (SRC) was 96% and the remaining binding at 1 µM (PRKCI) was 100%. It also gave a remaining binding at 1 µM (CDKL5 [4]) of 100%, a remaining binding at 1 µM (MAP4K5) of 100% and a remaining binding at 1 µM (PYK2) of 100%. The remaining binding at 1 µM (CSNK1A1) was 78%, the remaining binding at 1 µM (FLT3) was 80% and the remaining binding at 1 µM (NEK2) was 100%. For the same compound, the remaining binding at 1 µM (LATS2) was 72%, the remaining binding at 1 µM (EPHA7) was 100% and the remaining binding at 1 µM (ICK) was 100%.
